Data set [1] is classed as in vivo, human. Particulars: for concentration at 2 h: rifampin plasma concentration, Study 2, day 11, 2 h after drug intake, rifampin 600 mg q.d.; for PCI-45227 mean AUClast / PCI-45227 mean Cmax / PCI-45227 tmax, median (range): fasted.
The conditions of data set [2]: standard breakfast with GFJ; ref de Vries et al. [2015]; cited from earlier work.
Test in data set [3]: not given
The source holds these as a separate data set.

For data set [4], the system named is Bruton’s tyrosine kinase (BTK). Particulars: reversible binding; ref Parmar et al. [2014]; cited from earlier work.
Setting [5] is: Study 1, ibrutinib 120 mg alone, fasted.
Setting [6] is: Study 2, ibrutinib 560 mg + rifampin 600 mg.
The mark [7] stands for this setting: Study 2, ibrutinib 560 mg alone.
The mark [8] stands for this setting: Study 1, ibrutinib 40 mg + ketoconazole 400 mg, fasted.
Where [9] appears, read: Study 1, ibrutinib + ketoconazole vs ibrutinib alone.

These results are taken from article PMC4492731 (Pharmacology Research & Perspectives, 2015).

SMILES strings stand for the structures. Where two headings read alike, the source gives them in different places.

`CO[C@H]1/C=C/O[C@@]2(C)Oc3c(C)c(O)c4c(O)c(c(/C=N/N5CCN(C)CC5)c(O)c4c3C2=O)NC(=O)/C(C)=C\C=C\[C@H](C)[C@H](O)[C@@H](C)[C@@H](O)[C@@H](C)[C@H](OC(C)=O)[C@@H]1C` [rifampin, reference compound]: the concentration at 2 h is 9250 ± 4960 ng/mL in data set [1] (human, plasma, oral, mean ± SD) and 289 to 18400 ng/mL in data set [1] (human, plasma, oral, range).

For `C=CC(=O)N1CCC[C@@H](n2nc(-c3ccc(Oc4ccccc4)cc3)c3c(N)ncnc32)C1` [Ibrutinib, reference compound], the AUC(0-inf) (as a rule, total exposure, with the tail of the curve extrapolated) in data set [1] (human, plasma, oral, 560 mg) stood at 300 ng·h/mL; the AUC(0-inf) (human, in vivo, 120 mg) was 71 ng·h/mL; the AUC(0-inf) in data set [3] (human, in vivo, 560 mg) stood at 643 ng·h/mL. The “absolute oral bioavailability (F)” value in data set [2] is reported as 15.9%. Also, under “Study 1, ibrutinib 120 mg alone, day 1, fasted”, the “mean DN_AUClast of ibrutinib” value came out at 71.4 ng·h/mL. Moreover, the “mean DN_Cmax of ibrutinib” value (Study 1, ibrutinib 120 mg alone, day 1, fasted, healthy men) was 11.8 ng/mL. In addition, under setting [5], the AUClast geometric mean is 61 ng·h/mL. Also, the AUC (in general, the area under the concentration-time curve, a measure of exposure) (human, in vivo, 120 mg) stood at 56 ng·h/mL and the AUC in data set [3] (human, in vivo, 560 mg) was 529 ng·h/mL. Besides, the “AUCs of ibrutinib following i.v. administration with and without GFJ” value in data set [3] (Study 3, nonfasted, i.v. dose of 100 μg 13C6 PCI-32765) was “the same”.

`CC(=O)N1CCN(c2ccc(OCC3COC(Cn4ccnc4)(c4ccc(Cl)cc4Cl)O3)cc2)CC1` (stereo not drawn) [ketoconazole, reference compound]: under “Study 1, day 7, individual values”, the “ketoconazole plasma concentration, two participants with very low concentrations” value is on record as 231 ng/mL.

Regarding `Nc1ncnc2c1c(-c1ccc(Oc3ccccc3)cc1)nn2[C@@H]1CCCN(C(=O)C(O)CO)C1` (stereo partly drawn) [PCI-45227], in data set [1] (setting [6]), the “PCI-45227 mean AUClast” value was found to be 374 ng·h/mL; the “PCI-45227 mean Cmax” value was 49.9 ng/mL; the “PCI-45227 tmax, median (range)” value was 3.00 h. Besides, in data set [1] (setting [7]), the “PCI-45227 mean AUClast” value is 946 ng·h/mL; the “PCI-45227 mean Cmax” value is listed as 70.0 ng/mL; the “PCI-45227 tmax, median (range)” value was 2.02 h. The “metabolite to parent ratio for Cmax” value in data set [1] (Study 2, ibrutinib + rifampin) is listed as 20.80. In data set [1] (Study 2, ibrutinib alone), the “metabolite to parent ratio for Cmax” value is on record as 2.09. Besides, the “inhibitory activity toward BTK relative to ibrutinib” value in data set [4] was “approximately 15 times lower”. Under setting [8], the “PCI-45227 t1/2, mean (SD)” value worked out at 18.00 h and the “PCI-45227 tmax, median (range)” value was found to be 4.00 h. Besides, under setting [5], the “PCI-45227 DN_AUClast” value stood at 304 ng·h/mL; the “PCI-45227 DN_Cmax” value was 29.1 ng/mL; the “PCI-45227 t1/2, mean (SD)” value came to 11.41 h; the “PCI-45227 tmax, median (range)” value is listed as 2.00 h. Further, the “mean metabolite to parent ratio for Cmax” value (Study 1, ibrutinib + ketoconazole) was 0.05. Under setting [9], the “decrease of PCI-45227 DN_AUClast with ketoconazole” value is reported as 1.2 times lower and the “decrease of PCI-45227 DN_Cmax with ketoconazole” value is on record as 2.6 times lower. Moreover, the “mean metabolite to parent ratio for Cmax” value (Study 1, ibrutinib alone) came out at 2.64. Moreover, the “effect of GFJ on tmax of PCI-45227” value in data set [3] (Study 3) is reported as “no effect”. In data set [3] (Study 3, oral ibrutinib), the “dose-normalized PCI-45227 concentrations and AUCs with or without GFJ” value was “comparable”. Also, in data set [3] (Study 3, with GFJ), the Cmax metabolite-to-parent ratio amounted to 0.32. For the same compound, in data set [3] (Study 3, without GFJ), the Cmax metabolite-to-parent ratio worked out at 1.03.
